Data on 34 compounds can be found in US8586588B2, “Aryl pyridazinone derivatives and their use as H3 receptor ligands” (Cephalon, Inc., priority 2006, dated 2013).

Usually melting point stands for the temperature, or range, at which the solid turns liquid.

Molecules are shown by their SMILES. Where a name gives a salt, the structure may show the parent alone.

Regarding `C[C@@H]1CCCN1CCCOc1ccc2c(c1)CCc1cc(=O)[nH]nc1-2` (as salt: HCl) [Example 209, 8-[3-((R)-2-Methyl-pyrrolidin-1-yl)-propoxy]-5,6-dihydro-2H-benzo[h]cinnolin-3-one], the melting point lay in the range of 289 to 292 °C.
The compound `C[C@@H]1CCCN1CCCOc1ccc2c(c1)CCC1CC(=O)NN=C21` (stereo partly shown) (as salt: HCl) [Example 212, 8-[3-(2-Methyl-pyrrolidin-1-yl)-propoxy]-4,4a,5,6-tetrahydro-2H-benzo[h]cinnolin-3-one] gave a melting point of 193 to 195 °C.
For the compound `O=C1CCC(c2ccc(OC3CCN(C4CCC4)CC3)cc2F)=NN1` (as salt: HCl) [Example 219, 6-[4-(1-Cyclobutyl-piperidin-4-yloxy)-2-fluoro-phenyl]-4,5-dihydro-2H-pyridazin-3-one], the melting point is above 300 °C.
`COCn1ncc(-c2ccc(OCCCN3CCC[C@H]3C)cc2C)cc1=O` (as salt: HCl) [Example 230, 2-Methoxymethyl-5-{2-methyl-4-[3-((R)-2-methyl-pyrrolidin-1-yl)-propoxyl]-phenyl}-2H-pyridazin-3-one] showed a melting point of 139 to 140.5 °C.
In turn, `Cc1cc(OCCCN2CCC[C@H]2C)ccc1-c1cn[nH]c(=O)c1` (as salt: HCl) [Example 231, 5-{2-methyl-4-[3-((R)-2-methyl-pyrrolidin-1-yl)-propoxyl]-phenyl}-2H-pyridazin-3-one] yielded a melting point of 186 to 188 °C.
With `COCn1ncc(-c2ccc(OCCCN3CCCCC3)cc2C)cc1=O` (as salt: HCl) [Example 232, 2-Methoxymethyl-5-[2-methyl-4-(3-piperidin-1-yl-propoxy)-phenyl]-2H-pyridazin-3-one] the figure was 185 to 197 °C (dec.).
`COCn1ncc(-c2ccc(OC3CCN(C4CCC4)CC3)cc2C)cc1=O` (as salt: HCl) [Example 234, 5-[4-(1-Cyclobutyl-piperidin-4-yloxy)-2-methyl-phenyl]-2-methoxymethyl-2H-pyridazin-3-one] came in with a melting point of 119.5 to 123.5 °C.
`CCN1N=C(c2ccc(OC3CCN(C4CCC4)CC3)cc2)C2CC2C1=O` (stereo not shown) (as salt: HCl) [Example 250, 5-[4-(1-Cyclobutyl-piperidin-4-yloxy)-phenyl]-3-ethyl-3,4-diaza-bicyclo[4.1.0]hept-4-en-2-one] came in with a melting point of 246 to 248 °C.
With `CN1N=C(c2ccc(OC3CCN(C4CCC4)CC3)cc2)C2CC2C1=O` (stereo not shown) (as salt: HCl) [Example 252, 5-[4-(1-Cyclobutyl-piperidin-4-yloxy)-phenyl]-3-methyl-3,4-diaza-bicyclo[4.1.0]hept-4-en-2-one] the figure was 243 to 245 °C.
With `O=C1C2CC2C(c2ccc(OC3CCN(C4CCC4)CC3)cc2)=NN1c1ccc(F)cc1` (stereo not shown) (as salt: HCl) [Example 253, 5-[4-(1-Cyclobutyl-piperidin-4-yloxy)-phenyl]-3-(4-fluoro-phenyl)-3,4-diaza-bicyclo[4.1.0]hept-4-en-2-one] the figure was 147 to 149 °C; with `O=C1C2CC2C(c2ccc(OC3CCN(C4CCC4)CC3)cc2)=NN1CC(F)(F)F` (stereo not shown) (as salt: HCl) [Example 254, 5-[4-(1-Cyclobutyl-piperidin-4-yloxy)-phenyl]-3-(2,2,2-trifluoro-ethyl)-3,4-diaza-bicyclo[4.1.0]hept-4-en-2-one], 110 to 121 °C.
For the compound `CN1N=C(c2ccc(OC3CCN(C4CCCC4)CC3)cc2)C2CC2C1=O` (stereo not shown) (as salt: HCl) [Example 260, 5-[4-(1-Cyclopentyl-piperidin-4-yloxy)-phenyl]-3-methyl-3,4-diaza-bicyclo[4.1.0]hept-4-en-2-one], the melting point is 264 to 266 °C.
With `O=C1NN=C(c2ccc(OC3CCN(C4CCCC4)CC3)cc2)C2CC12` (stereo not shown) (as salt: HCl) [Example 261, 5-[4-(1-Cyclopentyl-piperidin-4-yloxy)-phenyl]-3,4-diaza-bicyclo[4.1.0]hept-4-en-2-one] the figure was 288 to 290 °C; with `Cc1ccc(=O)n(-c2ccc(OCCCN3CCC[C@H]3C)cc2)n1` (as salt: fumarate) [Example 201, 6-Methyl-2-{4-[3-((R)-2-methyl-pyrrolidin-1-yl)-propoxy]-phenyl}-2H-pyridazin-3-one], 168 to 170 °C.
`O=c1ccc(-c2ccccc2)nn1-c1ccc(OC2CCN(C3CCC3)CC2)nc1` (as salt: fumarate) [Example 203, 2-[6-(1-Cyclobutyl-piperidin-4-yloxy)-pyridin-3-yl]-6-phenyl-2H-pyridazin-3-one] returned a melting point of 155 to 159 °C.
`C[C@@H]1CCCN1CCCOc1ccc(-n2nc(C3CC3)ccc2=O)cc1` (as salt: fumarate) [Example 262, 6-Cyclopropyl-2-{4-[3-((R)-2-methyl-pyrrolidin-1-yl)-propoxy]-phenyl}-2H-pyridazin-3-one] displayed a melting point of 51 to 55 °C.
As for `C[C@@H]1CCCN1CCCOc1ccc2cnn(C)c(=O)c2c1` (as salt: hydrochloride) [Example 79, 2-Methyl-7-[3-((R)-2-methyl-pyrrolidin-1-yl)-propoxy]-2H-phthalazin-1-one], the melting point was in the range of 252 to 253 °C.
With `Cc1nn(C)c(=O)cc1-c1ccc(OCCCN2CCCCC2)cc1` (as salt: hydrochloride) [Example 87, 2,6-Dimethyl-5-[4-(3-piperidin-1-yl-propoxy)-phenyl]-2H-pyridazin-3-one], the melting point was 210 to 211 °C.
In the case of `Cc1n[nH]c(=O)cc1-c1ccc(OCCCN2CCC[C@H]2C)cc1` (as salt: hydrochloride) [Example 88, 6-Methyl-5-{4-[3-((R)-2-methyl-pyrrolidin-1-yl)-propoxy]-phenyl}-2H-pyridazin-3-one], the melting point is 115 °C (dec.).
With `Cc1n[nH]c(=O)cc1-c1ccc(OCCCN2CCCCCC2)cc1` (as salt: hydrochloride) [Example 90, 5-[4-(3-Azepan-1-yl-propoxy)-phenyl]-6-methyl-2H-pyridazin-3-one] the figure was 204 to 206 °C; with `C[C@@H]1CCCN1CCCOc1ccc(-c2cnn(C)c(=O)c2)cc1` (as salt: hydrochloride) [Example 91, 2-Methyl-5-{4-[3-((R)-2-methyl-pyrrolidin-1-yl)-propoxy]-phenyl}-2H-pyridazin-3-one], 222 to 223 °C; with `Cn1ncc(-c2ccc(OCCCN3CCCCC3)cc2)cc1=O` (as salt: hydrochloride) [Example 92, 2-Methyl-5-[4-(3-piperidin-1-yl-propoxy)-phenyl]-2H-pyridazin-3-one], 253 to 254 °C.
Regarding `Cn1ncc(-c2ccc(OCCCN3CCCCCC3)cc2)cc1=O` (as salt: hydrochloride) [Example 93, 5-[4-(3-Azepan-1-yl-propoxy)-phenyl]-2-methyl-2H-pyridazin-3-one], the melting point lay in the range of 247 to 248 °C.
With `O=c1cc(-c2ccc(OCCCN3CCCCC3)cc2)cn[nH]1` (as salt: hydrochloride) [Example 97], the melting point was 249 to 250 °C.
Take `Cc1cccnc1-n1ncc(-c2ccc(OCCCN3CCC[C@H]3C)cc2)cc1=O` (as salt: hydrochloride) [Example 99, 2-(3-Methyl-pyridin-2-yl)-5-{4-[3-((R)-2-methylpyrrolidin-1-yl)-propoxy]-phenyl}-2H-pyridazin-3-one]: the melting point lay in the range of 98 to 100 °C.
With `Cc1nn(-c2ccccn2)c(=O)cc1-c1ccc(OCCCN2CCC[C@H]2C)cc1` (as salt: hydrochloride) [Example 100, 6-Methyl-5-{4-[3-((R)-2-methyl-pyrrolidin-1-yl)-propoxy]-phenyl}-2-pyridin-2-yl-2H-pyridazin-3-one] the figure was 155 to 157 °C.
`Cc1cccnc1-n1nc(C)c(-c2ccc(OCCCN3CCC[C@H]3C)cc2)cc1=O` (as salt: hydrochloride) [Example 101, 6-Methyl-2-(3-methyl-pyridin-2-yl)-5-{4-[3-((R)-2-methyl-pyrrolidin-1-yl)-propoxy]-phenyl}-2H-pyridazin-3-one]: the melting point was 106 °C (dec.).
For the compound `C[C@@H]1CCCN1CCCOc1ccc(C2=NNC(=O)CC2c2ccccn2)cc1` (stereo partly drawn) (as salt: hydrochloride) [Example 111, 6-{4-[3-((R)-2-Methyl-pyrrolidin-1-yl)-propoxy]-phenyl}-5-pyridin-2-yl-4,5-dihydro-2H-pyridazin-3-one], the melting point is 133 °C (dec.).
With `C[C@@H]1CCCN1CCCOc1ccc(-c2n[nH]c(=O)cc2-c2ccccn2)cc1` (as salt: hydrochloride) [Example 112, 6-{4-[3-((R)-2-Methyl-pyrrolidin-1-yl)-propoxy]-phenyl}-5-pyridin-2-yl-2H-pyridazin-3-one] the figure was 234 °C (dec.); with `O=c1cc(-c2ccc(OC3CCN(C4CCC4)CC3)nc2)cn[nH]1` (as salt: hydrochloride) [Example 117, 5-[6-(1-Cyclobutyl-piperidin-4-yloxy)-pyridin-3-yl]-2H-pyridazin-3-one], 232 to 234 °C; with `C[C@@H]1CCCN1CCCOc1ccc(-c2ccc(=O)n(CCF)n2)cc1` (as salt: hydrochloride) [Example 118, 2-(2-Fluoro-ethyl)-6-{4-[3-((R)-2-methyl-pyrrolidin-1-yl)-propoxy]-phenyl}-2H-pyridazin-3-one], 135 to 136 °C.
In turn, `COc1cn[nH]c(=O)c1-c1ccc(OCCCN2CCC[C@H]2C)cc1` (as salt: hydrochloride) [Example 237, 5-Methoxy-4-{4-[3-((R)-2-methyl-pyrrolidin-1-yl)-propoxy]-phenyl}-2H-pyridazin-3-one] had a melting point of 135 to 140 °C.
On to `CC(C)n1nc(-c2ccc(OCCCN3CCC[C@H]3C)cc2)ccc1=O` (as salt: tartrate) [Example 5, 2-Isopropyl-6-{4-[3-((R)-2-methyl-pyrrolidin-1-yl)-propoxy]-phenyl}-2H-pyridazin-3-one], for which the melting point lay within 60 to 64 °C.
On to `CCn1nc(-c2ccc(OCCCN3CCC[C@H]3C)cc2)ccc1=O` (as salt: tartrate) [Example 6, 2-Ethyl-6-{4-[3-((R)-2-methyl-pyrrolidin-1-yl)-propoxy]-phenyl}-2H-pyridazin-3-one], for which the melting point fell in the range of 58 to 62 °C.
